{"source": "patent US5859019A", "about": "“Methods for protecting against cardiac ischemia by administering adenosine A2a receptor antagonists” (priority 1997, dated 1999)", "type_in_all_cases": "cell-based", "key": {"[1]": {"tested_on": "ventricular cells cultured from chick embryos", "experiment": "Hypoxia-induced injury / preconditioning of cultured ventricular cells (% cells killed, CK released)", "settings": "CGS21680 1 μM; for Ability to replace preconditioning hypoxia (protection against injury by ninety-minute hypoxia; % cells killed, CK released): agent given for 5 min in place of preconditioning hypoxia, before 90-min hypoxia, adenosine 10 μM, R-PIA 10 μM; for Effect on protection by preconditioning hypoxia (% cells killed, CK released): agent present during five-minute preconditioning hypoxia, CSC 1 μM, 8-SPT 100 μM, isoproterenol 0.3 μM, forskolin 1 μM, BayK 8644 0.1 μM", "procedure": "Ventricular cells were cultured from chick embryos 14 days in ovo, according to a previously described procedure (20, 27). Cells were plated at a density of 400,000 cells per ml and cultivated in a humidified 5% CO2 -95% air mixture at 37° C. […] For preconditioning studies, the medium was changed to a HEPES-buffered medium containing (mM) 139 NaCl, 4.7 KCl, 0.5 MgCl2, 0.9 CaCl2, 5 HEPES (N-2-hydroxyethylpiperazine-N'-2-ethanesulfonic acid) and 2% fetal bovine serum, pH=7.4, 37° C. before exposing cells to the various conditions at 37° C. Control cells were maintained in the HEPES-buffered media under room air. Hypoxia was produced by placing the cells in a hypoxic incubator (NuAire) where O2 was replaced by N2. The % O2 was monitored by both an oxygen Fyrite Gas Analyzer (Bacharach) and an oxygen analyzer (Model OX630, Engineered Systems & Designs). Preconditioning was induced by exposing the cells to five minutes of hypoxia, termed preconditioning hypoxia, prior to a second ninety-minute hypoxia. Cells not subjected to preconditioning were exposed to ninety minutes of hypoxia only (nonpreconditioned cells). The extracellular pH was similarly maintained at 7.4 by HEPES in both preconditioned and nonpreconditioned cells. Determination of basal level of cell injury was made after parallel incubation of control cells under normal % O2. For preconditioned and nonpreconditioned cells, determination of cell injury was made at the end of the ninety-minute hypoxic period.\nThe extent of hypoxia-induced injury to the ventricular cell was quantitatively determined by the percentages of cells killed and by the amount of creatine kinase (CK) released into the media. To quantitate the % cells killed, cells were exposed to a trypsin-EDTA Hanks' balanced salt solution for 10 minutes for detachment after the various treatment, followed by centrifugation (300 × g for 10 minutes) and resuspension in culture media for counting in a hemocytometer. Only live cells sedimented and the cells counted represented those that survived (29). None of the sedimented cells subsequently counted included trypan blue. […] There was no protein or CK in the culture media following a second 300 × g centrifugation of resuspended cells previously treated with trypsin-EDTA. […] In contrast, the trypsin-EDTA media from cells exposed to 90 minutes of hypoxia contained substantial amount of proteins (0.15±0.03 mg, n=9) and CK activity (16±3 unit/mg protein, n=8). […] Because trypsin may cause further proteolysis of proteins and CK, the amount of protein and CK retained by the damaged cells in the trypsin-EDTA media may not accurately reflect those associated with the damaged cells. In support of the notion that exposure to 90 minutes of hypoxia caused significant cell injury and loss of membrane integrity, there was also marked release of LDH (hypoxia-exposed cells, 35.5±2.7, unit/mg, n=8, ±S.E. vs. control cells, 6.1±0.4 unit/mg, n=8) and proteins (hypoxia-exposed cells, 0.15±0.03 mg, n=8 vs. control cells, 0.034±0.01 mg, n=8) from the cells incubated under prolonged hypoxia. Thus, the cell viability assay separated out the hypoxia-damaged from the control normoxia-exposed cells. […] The amount of CK was measured as enzyme activity (unit/mg), and increases in CK activity above the control level were determined. The percentage of cells killed was calculated as the number of cells obtained from the control group (representing cells not subjected to any hypoxia or drug treatment) minus the number of cells from the treatment group divided by number of cells in control group multiplied by 100%.\nTo investigate the role of adenosine in mediating the preconditioning effect, the ventricular cells, instead of being exposed to the brief hypoxia, were incubated with adenosine (10 μM) for 5 minutes prior to the ninety minute hypoxia. In adenosine-treated cells, media were replaced with adenosine-free media for ten minutes prior to a ninety-minute hypoxic exposure. […]"}, "[2]": {"tested_on": "ventricular cells cultured from chick embryos", "experiment": "45Ca uptake in cultured ventricular cells", "settings": "isoproterenol 0.3 μM, forskolin 1 μM, BayK 8644 0.1 μM; data not shown", "procedure": "(§1) Determination of ^45 Ca uptake was made according to a modification of previously described method (20). Cultures were incubated with L-(3, 4, 5-^3 H, N)-leucine (152.2 Ci/mmol) for a 24 hour prior to ^45 Ca uptake. [^3 H] leucine incorporated into the cellular protein allowed normalization of ^45 Ca content to mg cell protein. After incubation with ^45 Ca-containing medium, cells were then washed free of ^45 Ca and solubilized for 2 hours with 1% sodium dodecyl sulfate and 10 mM sodium borate and the levels of ^3 H and ^45 Ca were determined. For all data comparing the effect of different agents on ^45 Ca uptake, one-way ANOVA analysis followed by group comparison with t-test was carried out at each time point of the ^45 Ca uptake. Cyclic AMP level was determined according to a previously described radioimmunoassay (27)."}, "[3]": {"tested_on": "ventricular cells cultured from chick embryos", "experiment": "Cyclic AMP level in cultured ventricular cells (radioimmunoassay)", "settings": "Gallus gallus; isoproterenol 0.3 μM, forskolin 1 μM; n=6, ±S.E.; read-out: % increase in cAMP level", "procedure": "as §1"}}}
{"smiles": "CC(C)NCC(O)c1ccc(O)c(O)c1", "note": "(centres unmarked) [isoproterenol]", "values": [{"measurement": "Ability to replace preconditioning hypoxia (protection against injury by ninety-minute hypoxia; % cells killed, CK released)", "setting": "[1]", "value": "Neither isoproterenol, forskolin nor BayK8644 had any effect on the level of protection"}, {"measurement": "Effect on protection by preconditioning hypoxia (% cells killed, CK released)", "setting": "[1]", "value": "caused an increase in % cells killed and amount of CK released"}, {"measurement": "Calcium influx into the cultured cells", "setting": "[2]", "value": "induced increased calcium influx"}, {"measurement": "activation at 0.3 µM", "setting": "[3]", "value": "228 ± 31", "unit": "%"}]}
{"smiles": "C=C[C@@]1(C)CC(=O)[C@]2(O)[C@@]3(C)[C@@H](O)CCC(C)(C)[C@@H]3[C@H](O)[C@H](OC(C)=O)[C@@]2(C)O1", "note": "[forskolin]", "values": [{"measurement": "Ability to replace preconditioning hypoxia (protection against injury by ninety-minute hypoxia; % cells killed, CK released)", "setting": "[1]", "value": "Neither isoproterenol, forskolin nor BayK8644 had any effect on the level of protection"}, {"measurement": "Effect on protection by preconditioning hypoxia (% cells killed, CK released)", "setting": "[1]", "value": "caused an increase in % cells killed and amount of CK released"}, {"measurement": "Calcium influx into the cultured cells", "setting": "[2]", "value": "induced increased calcium influx"}, {"measurement": "activation at 1 µM", "setting": "[3]", "value": "54.8 ± 9.7", "unit": "%"}]}
{"smiles": "COC(=O)C1=C(C)NC(C)=C([N+](=O)[O-])C1c1ccccc1C(F)(F)F", "note": "(centres unmarked) [BayK 8644]", "values": [{"measurement": "Ability to replace preconditioning hypoxia (protection against injury by ninety-minute hypoxia; % cells killed, CK released)", "setting": "[1]", "value": "Neither isoproterenol, forskolin nor BayK8644 had any effect on the level of protection"}, {"measurement": "Effect on protection by preconditioning hypoxia (% cells killed, CK released)", "setting": "[1]", "value": "caused an increase in % cells killed and amount of CK released"}, {"measurement": "Calcium influx into the cultured cells", "setting": "[2]", "value": "induced increased calcium influx"}]}
